≈ marks a conversion by molar mass, not a printed value.
Assays:
Format in all cases: functional
[1] = test system: Staphylococcus epidermidis; experiment: Antibacterial activity against methicillin-sensitive Staphylococcus epidermidis 14-2 after 18 to 24 hrs by CLSI M100-S11 method
[2] = test system: Staphylococcus epidermidis; experiment: Antibacterial activity against methicillin-resistant Staphylococcus epidermidis 14-39 after 18 to 24 hrs by CLSI M100-S11 method
[3] = test system: Staphylococcus epidermidis; experiment: Antibacterial activity against methicillin-sensitive Staphylococcus epidermidis 14-6 after 18 to 24 hrs by CLSI M100-S11 method
Pseudomonas aeruginosa [4] = experiment: Antibacterial activity against Pseudomonas aeruginosa 14-9 after 18 to 24 hrs by CLSI M100-S11 method
Streptococcus pneumoniae = experiment: Antibacterial activity against Streptococcus pneumoniae ATCC 19615 after 18 to 24 hrs by CLSI M100-S11 method
Staphylococcus aureus [5] = experiment: Antibacterial activity against methicillin-sensitive Staphylococcus aureus 14-2 after 18 to 24 hrs by CLSI M100-S11 method
Enterococcus faecium [6] = experiment: Antibacterial activity against Enterococcus faecium 14-1 after 18 to 24 hrs by CLSI M100-S11 method
Escherichia coli [7] = experiment: Antibacterial activity against Escherichia coli 14-2 after 18 to 24 hrs by CLSI M100-S11 method
Staphylococcus aureus [8] = experiment: Antibacterial activity against methicillin-sensitive Staphylococcus aureus 14-4 after 18 to 24 hrs by CLSI M100-S11 method
Escherichia coli [9] = experiment: Antibacterial activity against Escherichia coli ATCC 25922 after 18 to 24 hrs by CLSI M100-S11 method
Pseudomonas aeruginosa [10] = experiment: Antibacterial activity against Pseudomonas aeruginosa 14-19 after 18 to 24 hrs by CLSI M100-S11 method
Escherichia coli [11] = experiment: Antibacterial activity against extended-spectrum beta-lactamase-producing Escherichia coli 14-2 after 18 to 24 hrs by CLSI M100-S11 method
Enterococcus faecalis [12] = experiment: Antibacterial activity against Enterococcus faecalis 14-1 after 18 to 24 hrs by CLSI M100-S11 method
[13] = test system: Staphylococcus epidermidis; experiment: Antibacterial activity against methicillin-resistant Staphylococcus epidermidis 14-22 after 18 to 24 hrs by CLSI M100-S11 method
Staphylococcus aureus [14] = experiment: Antibacterial activity against methicillin-resistant Staphylococcus aureus 14-5 after 18 to 24 hrs by CLSI M100-S11 method
Klebsiella pneumoniae [15] = experiment: Antibacterial activity against extended-spectrum beta-lactamase-producing Klebsiella pneumoniae 14-17 after 18 to 24 hrs by CLSI M100-S11 method
Pseudomonas aeruginosa [16] = experiment: Antibacterial activity against Pseudomonas aeruginosa 14-14 after 18 to 24 hrs by CLSI M100-S11 method
Klebsiella pneumoniae [17] = experiment: Antibacterial activity against Klebsiella pneumoniae 14-1 after 18 to 24 hrs by CLSI M100-S11 method
Klebsiella pneumoniae [18] = experiment: Antibacterial activity against extended-spectrum beta-lactamase-producing Klebsiella pneumoniae 14-19 after 18 to 24 hrs by CLSI M100-S11 method
Klebsiella pneumoniae [19] = experiment: Antibacterial activity against Klebsiella pneumoniae 14-4 after 18 to 24 hrs by CLSI M100-S11 method
Klebsiella pneumoniae [20] = experiment: Antibacterial activity against extended-spectrum beta-lactamase-producing Klebsiella pneumoniae 14-18 after 18 to 24 hrs by CLSI M100-S11 method
[21] = test system: Staphylococcus epidermidis; experiment: Antibacterial activity against methicillin-resistant Staphylococcus epidermidis 14-37 after 18 to 24 hrs by CLSI M100-S11 method
Escherichia coli [22] = experiment: Antibacterial activity against Escherichia coli 14-1 after 18 to 24 hrs by CLSI M100-S11 method
Pseudomonas aeruginosa [23] = experiment: Antibacterial activity against Pseudomonas aeruginosa 14-16 after 18 to 24 hrs by CLSI M100-S11 method
[24] = test system: Mycobacterium tuberculosis; experiment: Antimycobacterial activity against Mycobacterium tuberculosis H37Rv ATCC 27294 after 3 days by microplate Alamar Blue assay; conditions: H37Rv ATCC 27294, 72 h
Pseudomonas aeruginosa [25] = experiment: Antibacterial activity against Pseudomonas aeruginosa ATCC 27853 after 18 to 24 hrs by CLSI M100-S11 method
Klebsiella pneumoniae [26] = experiment: Antibacterial activity against Klebsiella pneumoniae 14-2 after 18 to 24 hrs by CLSI M100-S11 method
Staphylococcus aureus [27] = experiment: Antibacterial activity against methicillin-resistant Staphylococcus aureus 14-4 after 18 to 24 hrs by CLSI M100-S11 method
[28] = test system: Staphylococcus epidermidis; experiment: Antibacterial activity against methicillin-sensitive Staphylococcus epidermidis 14-4 after 18 to 24 hrs by CLSI M100-S11 method
Enterococcus faecalis [29] = experiment: Antibacterial activity against Enterococcus faecalis 14-2 after 18 to 24 hrs by CLSI M100-S11 method
Klebsiella pneumoniae [30] = experiment: Antibacterial activity against Klebsiella pneumoniae 14-3 after 18 to 24 hrs by CLSI M100-S11 method
Enterococcus faecium [31] = experiment: Antibacterial activity against Enterococcus faecium 14-2 after 18 to 24 hrs by CLSI M100-S11 method
Staphylococcus aureus [32] = experiment: Antibacterial activity against methicillin-sensitive Staphylococcus aureus 14-3 after 18 to 24 hrs by CLSI M100-S11 method
Staphylococcus aureus [33] = experiment: Antibacterial activity against Staphylococcus aureus CMCC 26003 after 18 to 24 hrs by CLSI M100-S11 method
Escherichia coli [34] = experiment: Antibacterial activity against extended-spectrum beta-lactamase-producing Escherichia coli 14-1 after 18 to 24 hrs by CLSI M100-S11 method
Enterococcus faecalis [35] = experiment: Antibacterial activity against Enterococcus faecalis 14-3 after 18 to 24 hrs by CLSI M100-S11 method
Pseudomonas aeruginosa [36] = experiment: Antibacterial activity against Pseudomonas aeruginosa 14-15 after 18 to 24 hrs by CLSI M100-S11 method

SMILES	MIC [1] [µg/mL]	MIC [2] [µg/mL]	MIC [3] [µg/mL]	MIC (Pseudomonas aeruginosa [4]) [µg/mL]	MIC (Streptococcus pneumoniae) [µg/mL]	MIC (Staphylococcus aureus [5]) [µg/mL]	MIC (Enterococcus faecium [6]) [µg/mL]	MIC (Escherichia coli [7]) [µg/mL]	MIC (Staphylococcus aureus [8]) [µg/mL]	MIC (Escherichia coli [9]) [µg/mL]	MIC (Pseudomonas aeruginosa [10]) [µg/mL]	MIC (Escherichia coli [11]) [µg/mL]	MIC (Enterococcus faecalis [12]) [µg/mL]	MIC [13] [µg/mL]	MIC (Staphylococcus aureus [14]) [µg/mL]	MIC (Klebsiella pneumoniae [15]) [µg/mL]	MIC (Pseudomonas aeruginosa [16]) [µg/mL]	MIC (Klebsiella pneumoniae [17]) [µg/mL]	MIC (Klebsiella pneumoniae [18]) [µg/mL]	MIC (Klebsiella pneumoniae [19]) [µg/mL]	also measured
CO/N=C1\CN(c2nc3c(cc2F)c(=O)c(C(=O)O)cn3-c2nc(N)c(F)cc2F)CC1CN (centres undefined)	> 128	64 (≈ 134 µM)	64 (≈ 134 µM)	16 (≈ 33.5 µM)	64 (≈ 134 µM)	0.5 (≈ 1.05 µM)	> 128	128 (≈ 268 µM)	0.25 (≈ 0.524 µM)	2 (≈ 4.19 µM)	64 (≈ 134 µM)	> 128	16 (≈ 33.5 µM)	64 (≈ 134 µM)	64 (≈ 134 µM)	128 (≈ 268 µM)	32 (≈ 67 µM)	> 128	> 128	> 128	MIC (Klebsiella pneumoniae [20]): 32 µg/mL (≈ 67 µM); MIC [21]: 128 µg/mL (≈ 268 µM); MIC (Escherichia coli [22]): 128 µg/mL (≈ 268 µM); MIC (Pseudomonas aeruginosa [23]): 32 µg/mL (≈ 67 µM); MIC [24]: 7.13 µg/mL (≈ 14.9 µM); MIC (Pseudomonas aeruginosa [25]): 4 µg/mL (≈ 8.38 µM); MIC (Klebsiella pneumoniae [26]): > 128 µg/mL; MIC (Staphylococcus aureus [27]): > 128 µg/mL; MIC [28]: 64 µg/mL (≈ 134 µM); MIC (Enterococcus faecalis [29]): 16 µg/mL (≈ 33.5 µM); MIC (Klebsiella pneumoniae [30]): > 128 µg/mL; MIC (Enterococcus faecium [31]): 64 µg/mL (≈ 134 µM); MIC (Staphylococcus aureus [32]): 0.5 µg/mL (≈ 1.05 µM); MIC (Staphylococcus aureus [33]): 0.5 µg/mL (≈ 1.05 µM); MIC (Escherichia coli [34]): 16 µg/mL (≈ 33.5 µM); MIC (Enterococcus faecalis [35]): 32 µg/mL (≈ 67 µM); MIC (Pseudomonas aeruginosa [36]): 32 µg/mL (≈ 67 µM)
CO/N=C1\CN(c2nc3c(cc2F)c(=O)c(C(=O)O)cn3-c2nc(N)c(F)cc2F)[C@@H]1CN	> 128	> 131	> 128	64 (≈ 138 µM)	128 (≈ 276 µM)	32 (≈ 69.1 µM)	> 128	> 128	16 (≈ 34.5 µM)	16 (≈ 34.5 µM)	64 (≈ 138 µM)	> 128	> 128	> 128	> 128	> 128	64 (≈ 138 µM)	> 128	> 128	> 128	MIC (Klebsiella pneumoniae [20]): 64 µg/mL (≈ 138 µM); MIC [21]: > 128 µg/mL; MIC (Escherichia coli [22]): > 128 µg/mL; MIC (Pseudomonas aeruginosa [23]): 64 µg/mL (≈ 138 µM); MIC [24]: > 32 µg/mL; MIC (Pseudomonas aeruginosa [25]): 64 µg/mL (≈ 138 µM); MIC (Klebsiella pneumoniae [26]): > 128 µg/mL; MIC (Staphylococcus aureus [27]): > 128 µg/mL; MIC [28]: > 128 µg/mL; MIC (Enterococcus faecalis [29]): > 128 µg/mL; MIC (Klebsiella pneumoniae [30]): > 128 µg/mL; MIC (Enterococcus faecium [31]): 64 µg/mL (≈ 138 µM); MIC (Staphylococcus aureus [32]): 32 µg/mL (≈ 69.1 µM); MIC (Staphylococcus aureus [33]): 16 µg/mL (≈ 34.5 µM); MIC (Escherichia coli [34]): > 128 µg/mL; MIC (Enterococcus faecalis [35]): > 128 µg/mL; MIC (Pseudomonas aeruginosa [36]): 64 µg/mL (≈ 138 µM)

Reference: ChEMBL document CHEMBL3797178, “Synthesis, antimycobacterial and antibacterial activity of 1-(6-amino-3,5-difluoropyridin-2-yl)fluoroquinolone derivatives containing an oxime functional moiety” (2016)
